Measured values from US20090131302A1, “Transient receptor potential vanilloid 1 and uses thereof” (priority 2007, published 2009).

Experiments:
[1] = test system: colon; conditions: rat, in vivo
Description: Colons were divided into proximal, middle and distal segments; portions of each segment were placed in 10% buffered formalin and portions were frozen in liquid nitrogen. Haematoxilin & Eosin stained parafin sections were scored for inflammation by a pathologist as described.^21 Myeloperoxidase (MPO) assays were performed as described.^22 Protein was measured by the BCA method (Pierce, Rockford, Ill.). Activity was expressed as the change in absorbance/min/mg protein. Cytokine levels were measured in colon extracts using the Biorad Bioplex assay procedure and normalized to protein.
To rule out the possibility that the sensitizing effects of neonatal acetic acid exposure were due to inflammation/injury of the colon, the colons of P10 pups were examined.
To determine whether persistent hypersensitivity achieved in neonatal acetic acid treated rats was due to the development of a chronic colitis in adult, H&E stained sections of the colons of 8 weeks old adult rats were examined for histopathological signs of inflammation, myoloperoxidase (MPO) activity and inflammatory cytokine levels. […] Since mast cells can affect both motility and sensitivity, mast cells in proximal, middle and distal colon were counted.

[2] = test system: TRPV1
Description: Tissues for western blot or RNA extraction were immediately frozen on dry ice and were stored at −80 until further analysis. Tissues were homogenized in extract buffer; 1% NP40, 10% glycerol, 20 mM Tris HCl […], 100 mM NaCl, 50 mM NaF, 2 mM EDTA, 1 mM EGTA, 25 mM b-glycerophosphate, 2 mM sodium pyrophosphate, 1 mM sodium orthovanadate, 1 mM phenylmethylsulfonyl fluoride and Protease Inhibitor Cocktail, 1/100 (Sigma). Proteins were resolved on 7.5% SDS-PAGE gels, transferred to PVDF membranes (BioRad), and incubated with an anti-TRPV1 antibody (PC420, Invitrogen) at 1/500. Bound antibodies were detected by ECL kit (Amersham Pharmacia Biotech, Piscataway, N.J.). The membranes were exposed to X-ray films and subsequently stripped and re-probed with a b-III-tubulin antibody (1/1000, Promega). Films were converted to TIFF image files using a HP scanner, and the TRPV1 and b-III-tubulin bands were quantified using OptiQuant software (Packard). Data was expressed as the ratio of TRPV1 to b-III-tubulin band intensity.
RNA was extracted from frozen DRG using Triozol (Invitrogen). Starting with […] of RNA, two-step quantitative RT-PCR was performed using Applied Biosystems reagents and kits. The following forward and reverse primer and probe sequences were used: TRPV1: […] (SEQ ID NO: 2), […] (SEQ ID NO: 3); b-III-tubulin: […] (SEQ ID NO: 4), […] (SEQ ID NO: 5), […] (SEQ ID NO: 6). TAQMAN PCR was performed on an Applied Biosystems 5700. Relative changes in TRPV1 mRNA levels were calculated by the DDCt method using b-III-tubulin as a normalizer. No RT reactions were performed as controls.
The lipid soluble fluorescent dye, DiI (1,1′-dioleyl-3,3,3′,3-tetramethylindocarbocyanine methanesulfonate, Invitrogen), 25 mg in 0.5 ml methanol, was injected in 2 μl volumes at 8-10 sites on the exposed colon from the level of the bladder to 6 cm oral. After one to two weeks, rats were perfused transcardially with 150 ml phosphate buffered saline (PBS) followed by 400 ml ice cold 4% paraformaldehyde in PBS. Dorsal root ganglia, T12 to S2 were removed and were post-fixed one hour in PFA and cryoprotected overnight in 20% sucrose in PBS. 10 micron sections on plus slides were incubated sequentially with TRPV1 antibody (PC420, Invitrogen, 1/200) and then with anti-rabbit Alexa Fluor 488 (Invitrogen, 1/200). Sections were viewed using a BX60 Olympus microscope equipped with filter cubes appropriate for DiI (Rhodamine filter) and appropriate band pass and barrier filter for Alexa-488. Images were captured and were analyzed using Metaview software. To ensure that a neuron is counted only once, serial sections were placed on consecutive slides with at least 50 microns between sections on the same slide.
To determine whether TRPV1 expression was altered in adult rats that were sensitized with acetic acid as neonates, TRPV1 expression in DRG containing colon afferents and in the spinal cord was measured.
TRPV1 and BDNF mRNA expression was measured in S1 DRG isolated from adult rats that were treated with acetic acid or saline as neonates by quantitative RT-PCR. […] To increase the sensitivity and specificity of this gene expression assay, measurements will be made in colon afferent neurons identified by uptake of the retrograde label fluorogold and isolated by laser capture microdissection (LCM) (FIG. 11).

[3] = test system: MAPK; conditions: pups one hour after infusion
Description: To determine whether acetic acid infusion of the colons of 10 days old pups activated MAPK in DRG containing soma of colon afferents, combined lumbar/sacral (LS) and thoracolumbar (TL) DRG from 4 pups/treatment group were assayed for p-p38 or ERK (p-p42/p-p44) content by western blot 1 hour after acetic acid infusion. Cervical (CE) DRG from the same animals were examined as an internal control for specificity of stimulation.

[4] = test system: colon of adult rats; conditions: 1 ml of 5% into descending colon at 8 weeks; tested after 4 weeks; 50-80 mm Hg; vs saline
Description: For neonatal sensitization, rats were obtained as litters of 4 days old pups. […] To treat neonatal rats with capsaicin, ten day old rat pups received an infusion of 0.2 mls of 50 mg/ml capsaicin or 0.2 mls vehicle: 10% ethanol, 10% Tween 20, 80% saline or were left unmanipulated. Visceral sensitivity and inflammatory parameters were measured in these rats between 8 and 12 weeks of age. […] After 4 weeks, rats were tested for sensitivity to colorectal distention.
The abdominal withdrawal reflex represents a characteristic set of behaviors produced by involuntary motor reflexes that are activated by colorectal distention. Visceral hypersensitivity was measured by grading the response of rats to colorectal distention as previously described.^11 Briefly, under mild sedation with 1% Brevital (Eli Lily & Co Indianapolis, Ind.) 25 mg/kg i.p.), a flexible balloon (5 cm) constructed from a surgical glove finger attached to a tygon tubing was inserted 8 cm into the descending colon and rectum via the anus and held in place by taping the tubing to the tail. Rats were placed in small Lucite cubicles (20×8×8 cm) (Bioengineering Department, UTMB) and were allowed to adapt for 30 minutes. CRD was performed by rapidly inflating the balloon to constant pressure. Pressure was measured using a sphygmomanometer connected to a pressure transducer. […]

[5] = test system: colon DRG neurons
Description: To determine whether the sensitivity of colon DRG neurons was altered in eight weeks old rats in this model, action potential threshold (rheobase) and firing frequency of acutely dissociated lumbar/sacral (LS), and thoracolumbar (TL) colon DRG neurons, identified by the presence of the retrograde label DiI, were measured in current clamp experiments.

[6] = test system: colon of P10 rats; conditions: 0.5% into colon at P10, vs saline
Description: To treat neonatal rats with capsaicin, ten day old rat pups received an infusion of 0.2 mls of 50 mg/ml capsaicin or 0.2 mls vehicle: 10% ethanol, 10% Tween 20, 80% saline or were left unmanipulated. Visceral sensitivity and inflammatory parameters were measured in these rats between 8 and 12 weeks of age. […] After 4 weeks, rats were tested for sensitivity to colorectal distention.
Visceral hypersensitivity was measured by grading the response of rats to colorectal distention as previously described.^11 Briefly, under mild sedation with 1% Brevital (Eli Lily & Co Indianapolis, Ind.) 25 mg/kg i.p.), a flexible balloon (5 cm) constructed from a surgical glove finger attached to a tygon tubing was inserted 8 cm into the descending colon and rectum via the anus and held in place by taping the tubing to the tail. […] Pressure was measured using a sphygmomanometer connected to a pressure transducer. […] Behavioral responses to colorectal distention were measured by visual observation of the abdominal withdrawal reflex by blinded observer and the assignment of an AWR score as follows: 1=Normal behavior without response 2=Contraction of abdominal muscles; 3=Lifting of abdominal wall; 4=Body arching and lifting of pelvic structures. […]
Data is expressed as mean+/−standard error of the mean (SE).

[7] = adult rats sensitized as neonates vs controls
[8] = quantitative RT-PCR, vs P10 saline

CC(=O)O [acetic acid]
IFN-g in proximal colon, relative to saline [1]: 1.5 fold | MPO activity in proximal, middle and distal colon [1]: no significant increases in activity | MPO values in colon of pups [1]: not significantly different | histology of colon of pups [1]: No histological signs of inflammation or tissue destruction | histopathological examination of adult colon [1]: no evidence of inflammation or abnormalities in structure | levels of pro-inflammatory cytokines (IL-1b, IL-1a, IL-2, IL-6, TNF-a, IFN-g) [1]: no significant differences | mast cell counts, distal colon [1]: 9.3 SE 4.1 number of mast cells per high-powered field | mast cell counts, middle colon [1]: 7.7 SE 1.2 number of mast cells per high-powered field | mast cell counts, proximal colon [1]: 6.3 SE 3.4 number of mast cells per high-powered field | TRPV1 protein expression in the spinal cord ([2]; adult rats sensitized as neonates): No change | TRPV1 mRNA in TL DRG [2, 7]: no change | TRPV1 mRNA increase in LS DRG [2, 7]: 1.9 fold | TRPV1 protein expression in whole DRG extracts ([2]; both TL and LS DRG, adult rats sensitized as neonates): significantly increased | colon DRG neurons (DiI) expressing TRPV1 immunoreactivity, LS DRG ([2]; control 38.8%): 54.0% | colon DRG neurons (DiI) expressing TRPV1 immunoreactivity, TL DRG ([2]; control 40.6%): 67.3% | BDNF mRNA expression increase in S1 DRG [2, 8]: 1.9 fold | TRPV1 mRNA expression increase in S1 DRG [2, 8]: 1.9 fold | p-p38 in TL or CE DRG [3]: No large changes | p-p42 in LS DRG [3]: no change | p-p44 in LS DRG [3]: seven-fold increase | p-ERK increase in TL DRG ([3]; also seen with saline): 3-5 fold | p-p38 in LS DRG ([3]; vs saline and unmanipulated): three-fold increase | AWR grades in response to colorectal distention [4]: No significant differences | average rheobase, TL colon DRG neurons ([5]; 8 weeks old rats treated at P10, control 0.47): 0.29 nA | average rheobase, LS colon DRG neurons ([5]; 8 weeks old rats treated at P10, control 0.56): 0.21 nA | number of action potentials elicited by current injection at 2x the rheobase, LS neurons ([5]; control 1.2): 1.8 | EMG activity in response to graded colorectal distention ([6]; adult, 40 and 60 mm Hg): significantly higher | AWR scores in response to colorectal distention ([6]; tested at 8 weeks): higher mean AWR scores at all distention pressures
